Test results published in patent US20080200507A1, “Crystalline Non-Solvated Methanesulfonic Acid Salt of 1-(4-(2-Piperidinylethoxy)Phenoxy)-2-(3-Hydroxyphenyl)-6-Hydroxynaphthalene” (priority 2005, published 2008).
Where a name gives a salt, the structure may show the parent alone.

Legend:
[1] = target: endogenous ER receptors in Ishikawa human endometrial tumor cells (Homo sapiens, UniProt P03372); assay: Ishikawa Cell Proliferation Assay (alkaline phosphatase endpoint), agonist and antagonist mode; assay type: cell-based; settings: read-out: agonist response (percentage efficacy versus tamoxifen)
Chain of endogenous ER receptors in Ishikawa human endometrial tumor cells (P03372 whole entry): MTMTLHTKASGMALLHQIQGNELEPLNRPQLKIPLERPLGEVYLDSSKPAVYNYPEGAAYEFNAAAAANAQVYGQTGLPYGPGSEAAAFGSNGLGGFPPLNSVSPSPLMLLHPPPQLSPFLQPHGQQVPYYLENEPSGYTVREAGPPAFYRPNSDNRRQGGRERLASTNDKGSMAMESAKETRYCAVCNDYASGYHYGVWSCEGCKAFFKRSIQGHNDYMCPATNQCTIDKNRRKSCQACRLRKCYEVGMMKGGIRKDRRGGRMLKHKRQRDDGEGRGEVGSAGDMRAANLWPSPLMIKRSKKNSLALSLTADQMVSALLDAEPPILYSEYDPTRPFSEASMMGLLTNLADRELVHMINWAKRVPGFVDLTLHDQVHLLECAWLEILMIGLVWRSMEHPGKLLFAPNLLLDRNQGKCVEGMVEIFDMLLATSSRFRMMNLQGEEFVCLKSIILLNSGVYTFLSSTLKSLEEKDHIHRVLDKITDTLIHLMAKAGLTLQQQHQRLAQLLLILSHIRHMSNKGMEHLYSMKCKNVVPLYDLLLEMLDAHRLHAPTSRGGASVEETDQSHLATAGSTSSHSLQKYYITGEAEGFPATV
Protocol: Ishikawa Cell Proliferation Assay:
This assay measures cell proliferation in both an agonist mode in the presence of a salt of the present invention alone, and in an antagonist mode in which the ability of a salt of the present invention to block estradiol stimulation of growth is measured. This assay utilizes Ishikawa human endometrial tumor cells and measures agonist and antagonist effects on endogenous ER receptors via an alkaline phosphatase endpoint (Littlefield et al., Endocrinology, 127:2757-2762, 1990). Alkaline phosphatase activity is measured as an endpoint for relative estrogenic stimuli in both an agonist mode and antagonist mode, where the ability of a test compound to block estradiol stimulatory activity is measured (Bramlett, K S, Burris, J., Steroid Biochem. Molec. Biol., 86:27-34, 2003). […]
The plates are dried for 5 minutes and frozen at −70° C. for at least 1 hour. […] After a twenty minute incubation, plates are read on a spectrophotometer at 405 nm. […] For the agonist mode, a percentage efficacy for the test compound is calculated versus the response to 100 nM tamoxifen alkaline phosphatase stimulation as: 100×(test compound-control)/(tamoxifen-control). For the antagonist mode, a percentage efficacy for the test compound is calculated versus E2 (1 nM) alone as: 100×(E2-test compound)/(E2-control).

[2] = system: estrogen-induced response (uterine weight/body weight ratio) in female Sprague Dawley (SD) rats; assay: 3-Day Rat Uterine Antagonist; assay type: in vivo; settings: 72 h, oral, 3 days, with EE 0.1 mg/kg, two assays, same value on both occasions, read-out: ED50 (inhibition of estrogen-induced uterine weight response)
Protocol: 3-Day Rat Uterine Antagonist
Female Sprague Dawley (SD) rats, 6 per group and 19 to 21 days of age, are orally treated with ethinyl estradiol (EE; 0.1 mg/kg) and 10, 1, 0.1, or 0.01 mg/kg test compound for 3 days. Test compound is dissolved in 20% w/v β-hydroxycyclodextrin in water and administered by oral gavage in a volume of 0.2 mL daily (15 minutes prior to the EE gavage). Groups of 6 rats are also given vehicle as a negative control and EE alone as a positive control. The animals are fasted overnight following the final dose. On the following morning, the animals are weighed and then euthanized (by carbon dioxide asphyxiation) and the uteri are rapidly collected (via a midline ventral incision), stripped of adipose tissue, removed luminal fluid by blotting onto absorbant paper, and weighed.
Uterine weight/body weight ratios (UWR) are calculated for each animal. The percentage inhibition of the estrogen-induced response is then calculated by the following formula: percent inhibition=100×(UWREE−UWRtest compound/UWREE−UWRcontrol). ED50 values are derived from a semi-log regression analysis of the linear aspect of the dose response curve.

[3] = system: ovariectomized SD female rats (uterine wet weight, BMC, BMD); assay: 8-Week Mature OVX Rat Uterine and Bone Effects; assay type: in vivo
Protocol: 8-Week Mature OVX Rat Uterine and Bone Effects
Virgin 6-month-old, SD female rats (Harlan, Ind.) weighing about 270 g are randomized to treatment groups and bilateral ovariectomies are performed using isoflurane anesthesia. Treatment is initiated 3 days after ovariectomy. Groups are orally dosed each day for 8 weeks with GS II mesylate in a vehicle of 20% hydroxypropyl-β-cyclodextrin (Aldrich Chemical Co., Milwaukee, Wis.). Vertebrae and femora are excised at necropsy and the mid-transverse section of the lumbar vertebra L-4 and distal femur metaphysis is scanned in 50% ethanol/saline, using quantitative computed tomography (QCT) (Research M, Norland/Stratec, Pt. Atkinson, Wis.). Cross-sectional area (X-Area), bone mineral content (BMC, mg), and volumetric BMD (vBMD, mg/cm^3) are quantitated, using voxel dimensions of 148×148×500 μm as previously described (Sato M., Bone, 17:157S-162S, 1995). Bone measurements are carried out by computed tomography (CT) scans on the distal femur metaphysis (cancelous bone measurement) and the […] lumbar vertebrae (Sato, 1995 and Sato, et al., J. Med. Chem., 42:1-24, 1999).

[4] = Salt forms administered to monkeys, blood levels of GS II and its conjugates; assay type: in vivo; settings: compared among crystalline acetate, mesylate, lactate and phosphate salts, methanesulfonate
Protocol: Four of these salts (the crystalline acetate, mesylate, lactate and phosphate salts of GS II) were administered to monkeys and blood levels of GS II and its conjugates were measured. […] Some additional physical properties of crystalline non-solvated GS II mesylate are disclosed below in Table 1.

[5] = Thermogravimetric analysis (volatiles / weight loss); assay type: physicochemical; settings: 25 to 216° C.
[6] = Moisture adsorption / hygroscopicity; assay type: physicochemical
[7] = In situ salt screening, aqueous in situ solubility; assay type: physicochemical; settings: crystalline salts
Source text: In general, as aqueous solubility increases, the potential for absorption of the drug in the gut (and ultimate bioavailability) increases as well. Higher bioavailability can result in lower variability in clinical exposure and thus give the physician an advantage in correctly dosing-the patient within the therapeutic window. Using the aqueous in situ solubility as a guide, and the robustness of the same crystalline form isolated via automation, the crystalline mesylate, lactate, tartrate and phosphate salts of GS II were identified as candidates for further evaluation. Separately, the crystalline acetate salt of GS II was identified and also further characterized.

[8] = dose as low as 0.01 mg/kg, 8 weeks (distal femur metaphysis)

Compound	Emax [1]	ED50 [2]	BMC changes in the vertebrae ([3]; 8 weeks, lumbar vertebra)	BMD preservation in the vertebrae ([3]; 8 weeks, lumbar vertebra)	uterine stimulation over OVX control ([3]; 10-mg/kg dose, 8 weeks, in comparison to ovary intact (sham operated) rats)	preservation of BMC [3, 8]	preservation of BMD [3, 8]	Changes in uterine wet weight ([3]; oral daily, after 8 weeks of treatment)	in vivo exposure of GS II (ng hr/ml of GS II and of its conjugates) ([4]; listed as crystalline mesylate salt)	in vivo exposure of GS II (ng hr/ml of GS II and of its conjugates) [4]	% Volatiles (Thermo Gravimetric Analysis) [5]	hygroscopicity [6]	% Moisture Adsorbed @80% RH ([6]; 80% RH)	in situ aqueous solubility [7]
Oc1cccc(-c2ccc3cc(O)ccc3c2Oc2ccc(OCCN3CCCCC3)cc2)c1 [crystalline non-solvated GS II mesylate, 1-(4-(2-piperidinylethoxy)phenoxy)-2-(3-hydroxyphenyl)-6-hydroxynaphthalene, methanesulfonate]	13.8%	0.22 mg/kg	statistical significance for BMC changes were not achieved	BMD preservation was also seen	8.7%	significant preservation	significant preservation	minimal	largest in vivo exposure	significant in vivo exposure	<1% (25 to 216° C.)	non-hygroscopic	<1%	–
fumarate	–	–	–	–	–	–	–	–	–	–	–	–	–	relatively low
tosylate	–	–	–	–	–	–	–	–	–	–	–	–	–	relatively low
